Laboratory results taken from ChEMBL document CHEMBL1201862, “PubChem BioAssay data set” (2004).
Calls of active or inactive are those of the source.

How the values were obtained:
[1] = biological target: T1, Orexin/Hypocretin receptor type 1 (Homo sapiens, UniProt O43613); experiment: Homogeneous Time Resolved Fluorescence (HTRF)-based cell-based high throughput dose response assay for antagonists of the orexin 1 receptor (OX1R; HCRTR1). [Related pubchem assays (depositor defined):AID434989, AID435008, AID463079, AID485270, AID492963, AID492964, AID492965, AID493232, AID504717, AID504718]; format: functional
T1 sequence (O43613 whole entry): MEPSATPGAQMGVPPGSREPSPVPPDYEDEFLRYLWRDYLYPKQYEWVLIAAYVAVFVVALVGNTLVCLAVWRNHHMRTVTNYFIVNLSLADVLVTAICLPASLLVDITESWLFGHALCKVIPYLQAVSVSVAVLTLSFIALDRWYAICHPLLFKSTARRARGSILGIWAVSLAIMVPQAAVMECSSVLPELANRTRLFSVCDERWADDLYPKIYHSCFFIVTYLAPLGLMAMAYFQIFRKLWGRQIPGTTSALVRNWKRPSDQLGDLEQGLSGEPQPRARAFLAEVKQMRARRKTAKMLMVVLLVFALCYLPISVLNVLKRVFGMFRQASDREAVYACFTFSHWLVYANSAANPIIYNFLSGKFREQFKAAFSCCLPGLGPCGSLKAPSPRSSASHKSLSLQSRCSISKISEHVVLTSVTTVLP

[2] = biological target: T1, Orexin/Hypocretin receptor type 1; experiment: Fluorescence-based cell-based high throughput dose response assay for antagonists of the orexin 1 receptor (OX1R; HCRTR1). [Related pubchem assays (depositor defined):AID434989, AID435008, AID463079, AID485270, AID492963, AID492964, AID492965, AID493232, AID504717, AID504718]; format: functional
Orexin receptor type 2 [3] = biological target: T2, Orexin receptor type 2 (Homo sapiens, UniProt O43614); experiment: Counterscreen assay for antagonists of the orexin 1 receptor (OX1R; HCRTR1): Homogeneous Time Resolved Fluorescence (HTRF)-based cell-based dose response assay for antagonists of the orexin 2 receptor (OX2R; HCRTR2), run by assay provider.; format: functional
T2 sequence (O43614 whole entry): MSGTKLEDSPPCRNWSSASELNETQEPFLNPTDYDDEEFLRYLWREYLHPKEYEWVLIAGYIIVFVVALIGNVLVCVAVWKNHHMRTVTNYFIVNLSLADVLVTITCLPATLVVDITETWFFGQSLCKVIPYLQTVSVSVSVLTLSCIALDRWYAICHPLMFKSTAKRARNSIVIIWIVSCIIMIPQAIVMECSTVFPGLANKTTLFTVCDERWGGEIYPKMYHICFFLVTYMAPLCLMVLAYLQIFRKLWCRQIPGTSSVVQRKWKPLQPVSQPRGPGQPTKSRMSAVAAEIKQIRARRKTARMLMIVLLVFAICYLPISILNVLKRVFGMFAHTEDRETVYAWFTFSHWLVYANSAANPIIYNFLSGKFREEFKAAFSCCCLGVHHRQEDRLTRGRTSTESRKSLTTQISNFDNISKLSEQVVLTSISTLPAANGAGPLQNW

CHO-K1 = experiment: (§1) Counterscreen for antagonists of the orexin 1 receptor (OX1R; HCRTR1): Homogeneous time resolved fluorescence (HTRF)-based cell-based dose response assay to identify antagonists of the parental CHO-K1 cell line. [Related pubchem assays (depositor defined):AID434989, AID435008, AID463079, AID485270, AID492963, AID492964, AID492965, AID493232, AID504699, AID504701]; format: functional; settings: Cricetulus griseus
[4] = biological target: Broad substrate specificity ATP-binding cassette transporter ABCG2 (Homo sapiens, UniProt Q9UNQ0); experiment: blockers of JC-1 export by ABCG2 – Ig-MXP3 cells, flow cytometry, dose response (AID 1690); format: functional
Broad substrate specificity ATP-binding cassette transporter ABCG2, sequence (Q9UNQ0 whole entry): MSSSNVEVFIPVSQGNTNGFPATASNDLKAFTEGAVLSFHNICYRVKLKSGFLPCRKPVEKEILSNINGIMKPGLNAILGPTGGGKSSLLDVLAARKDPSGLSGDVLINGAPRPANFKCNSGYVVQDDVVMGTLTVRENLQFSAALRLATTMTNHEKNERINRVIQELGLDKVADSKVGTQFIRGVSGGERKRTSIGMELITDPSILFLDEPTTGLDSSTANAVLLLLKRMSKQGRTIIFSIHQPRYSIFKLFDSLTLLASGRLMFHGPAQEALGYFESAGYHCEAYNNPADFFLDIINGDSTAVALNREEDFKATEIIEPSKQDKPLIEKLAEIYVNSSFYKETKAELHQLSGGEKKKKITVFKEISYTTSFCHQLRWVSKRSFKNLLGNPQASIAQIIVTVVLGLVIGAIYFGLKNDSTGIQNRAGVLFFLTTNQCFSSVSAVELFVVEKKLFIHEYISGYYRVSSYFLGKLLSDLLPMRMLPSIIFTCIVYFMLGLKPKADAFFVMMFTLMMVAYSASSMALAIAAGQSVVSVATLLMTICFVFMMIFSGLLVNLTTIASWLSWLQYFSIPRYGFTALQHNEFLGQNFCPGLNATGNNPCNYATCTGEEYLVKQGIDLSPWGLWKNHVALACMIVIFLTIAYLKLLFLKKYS

[5] = biological target: ATP-dependent translocase ABCB1 (Homo sapiens, UniProt P08183); experiment: inhibition of P-gp mediated JC-1 efflux – Jurkat-DNR cells, flow cytometry, dose response (AID 1689); format: functional
ATP-dependent translocase ABCB1, sequence (P08183 whole entry): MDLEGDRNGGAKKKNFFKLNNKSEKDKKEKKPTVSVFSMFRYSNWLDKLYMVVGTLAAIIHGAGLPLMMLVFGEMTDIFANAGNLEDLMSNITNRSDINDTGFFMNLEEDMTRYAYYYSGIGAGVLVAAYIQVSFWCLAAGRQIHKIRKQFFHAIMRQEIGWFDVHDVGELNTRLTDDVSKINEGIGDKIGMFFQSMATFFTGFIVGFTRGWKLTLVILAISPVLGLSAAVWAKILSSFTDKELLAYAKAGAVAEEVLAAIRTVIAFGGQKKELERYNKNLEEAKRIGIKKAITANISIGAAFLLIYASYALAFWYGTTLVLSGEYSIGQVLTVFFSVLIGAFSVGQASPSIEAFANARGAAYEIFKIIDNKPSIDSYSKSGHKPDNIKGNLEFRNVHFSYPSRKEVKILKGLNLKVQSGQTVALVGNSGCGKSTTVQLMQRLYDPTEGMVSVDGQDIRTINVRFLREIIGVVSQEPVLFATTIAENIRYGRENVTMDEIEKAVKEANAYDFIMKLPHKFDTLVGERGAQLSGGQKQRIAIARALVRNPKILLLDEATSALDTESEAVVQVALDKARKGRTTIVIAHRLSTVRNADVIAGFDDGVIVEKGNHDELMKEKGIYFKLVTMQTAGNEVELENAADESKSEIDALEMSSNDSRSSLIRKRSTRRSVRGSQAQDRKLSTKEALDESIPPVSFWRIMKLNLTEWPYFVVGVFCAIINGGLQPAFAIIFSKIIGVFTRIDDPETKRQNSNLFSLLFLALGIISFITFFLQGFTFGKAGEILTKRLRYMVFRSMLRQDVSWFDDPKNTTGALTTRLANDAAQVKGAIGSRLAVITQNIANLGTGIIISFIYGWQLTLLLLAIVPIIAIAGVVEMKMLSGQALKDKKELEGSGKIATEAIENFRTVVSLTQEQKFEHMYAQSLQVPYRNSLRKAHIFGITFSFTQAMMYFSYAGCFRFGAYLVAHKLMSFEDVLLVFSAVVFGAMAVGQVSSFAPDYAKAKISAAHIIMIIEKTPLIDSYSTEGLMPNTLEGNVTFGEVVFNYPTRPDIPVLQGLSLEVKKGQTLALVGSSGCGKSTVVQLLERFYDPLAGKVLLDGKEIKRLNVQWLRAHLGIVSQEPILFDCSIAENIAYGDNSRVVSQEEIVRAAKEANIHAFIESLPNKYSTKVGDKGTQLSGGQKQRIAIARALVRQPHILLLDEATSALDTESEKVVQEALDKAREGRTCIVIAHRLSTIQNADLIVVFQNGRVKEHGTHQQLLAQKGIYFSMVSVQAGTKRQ

[6] = Trypanosoma cruzi growth suppression in host cells – NIH3T3 host cells, beta-gal luminescence, confirmation (AID 2044); format: functional, cell-based;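 also: intracellular parasites grown in NIH/3T3 mouse fibroblasts as host cells; luminescent beta-galactosidase reporter signal from transgenic T. cruzi replicating inside host cells; inhibitors lower the luminescence signal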
[7] = NIH3T3 cell viability loss – ATP luminescence, mouse fibroblasts, counter-screen, dose response (AID 2010); format: functional, cell-based;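 also: cells exposed to compound for about 90 hours before reading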
[8] = as §1, with “Fluorescence-based” for “Homogeneous time resolved fluorescence (HTRF)-based”, “cell-based high throughput” for “cell-based”, “CHO” for “CHO-K1”; format: functional
Orexin receptor type 2 [9] = biological target: T2, Orexin receptor type 2; experiment: Counterscreen assay for antagonists of the orexin 1 receptor (OX1R; HCRTR1): Fluorescence-based cell-based dose response assay for antagonists of the orexin 2 receptor (OX2R; HCRTR2), run by assay provider.; format: functional
[10] = inhibition of ADAM10 peptide cleavage – biochemical, FRET peptide substrate, recombinant human ADAM10, selectivity assay for ADAM17 exosite inhibitor project, dose response (AID 743259);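 also: ADAM10 enzyme cleaving a FRET peptide substrate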
cells [11] = experiment: cells
Major prion protein = Major prion protein (Homo sapiens, UniProt P04156); format: functional, cell-based
Galanin receptor type 3 = Galanin receptor type 3 (Homo sapiens, UniProt O60755); experiment: Fluorescence-based cell-based primary high throughput dose response assay to identify antagonists of the Galanin Receptor 3 (GalR3).; format: functional
Galanin receptor type 3, sequence (O60755 whole entry): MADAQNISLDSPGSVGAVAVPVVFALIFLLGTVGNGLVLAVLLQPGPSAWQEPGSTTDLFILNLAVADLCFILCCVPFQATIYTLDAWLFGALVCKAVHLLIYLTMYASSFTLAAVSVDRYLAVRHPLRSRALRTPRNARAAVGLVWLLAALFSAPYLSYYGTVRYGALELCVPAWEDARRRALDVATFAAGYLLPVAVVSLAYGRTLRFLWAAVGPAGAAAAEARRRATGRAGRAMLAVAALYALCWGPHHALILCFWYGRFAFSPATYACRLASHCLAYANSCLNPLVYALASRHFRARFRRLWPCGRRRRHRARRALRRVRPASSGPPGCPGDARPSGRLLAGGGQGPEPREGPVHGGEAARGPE

cells [12] = format: functional, cell-based; settings: HEK-CNG
[13] = biological target: T3, Replicative DNA helicase DnaB (Mycobacterium tuberculosis, UniProt P9WMR3); experiment: DnaB intein splicing inhibitors, dose response, biochemical, cell-free fluorescence (AID 449749); format: functional
T3 sequence (P9WMR3 whole entry): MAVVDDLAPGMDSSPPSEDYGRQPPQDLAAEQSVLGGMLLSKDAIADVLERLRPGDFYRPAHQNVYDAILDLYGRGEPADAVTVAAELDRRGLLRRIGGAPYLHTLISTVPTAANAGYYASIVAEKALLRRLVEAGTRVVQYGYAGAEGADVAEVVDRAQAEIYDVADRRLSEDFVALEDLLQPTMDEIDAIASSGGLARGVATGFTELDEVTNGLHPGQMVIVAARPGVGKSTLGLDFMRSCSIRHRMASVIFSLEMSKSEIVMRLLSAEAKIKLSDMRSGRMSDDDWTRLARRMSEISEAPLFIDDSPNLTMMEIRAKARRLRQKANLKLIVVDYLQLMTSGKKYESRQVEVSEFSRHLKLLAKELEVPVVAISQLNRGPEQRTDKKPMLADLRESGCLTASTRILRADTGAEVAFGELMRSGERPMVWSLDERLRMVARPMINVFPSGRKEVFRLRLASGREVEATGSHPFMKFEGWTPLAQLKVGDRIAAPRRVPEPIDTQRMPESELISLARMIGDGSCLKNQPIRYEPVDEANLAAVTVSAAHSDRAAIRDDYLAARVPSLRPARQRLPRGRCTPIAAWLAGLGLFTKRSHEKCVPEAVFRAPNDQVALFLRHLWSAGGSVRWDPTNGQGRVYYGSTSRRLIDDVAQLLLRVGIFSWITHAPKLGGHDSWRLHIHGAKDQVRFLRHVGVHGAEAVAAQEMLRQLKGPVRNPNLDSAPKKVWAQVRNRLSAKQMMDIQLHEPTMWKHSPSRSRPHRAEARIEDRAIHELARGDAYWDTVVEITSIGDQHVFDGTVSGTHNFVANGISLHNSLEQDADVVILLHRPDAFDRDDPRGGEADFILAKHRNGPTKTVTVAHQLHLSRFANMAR

Genome polyprotein = Genome polyprotein (dengue virus type 2, UniProt P29990); experiment: flavivirus cap methylation enzyme inhibition – biochemical, confirmation dose response, primary screen (AID 588689); format: functional
[14] = biological target: Histone-lysine N-methyltransferase NSD2 (Homo sapiens, UniProt O96028); format: biochemical
Histone-lysine N-methyltransferase NSD2, sequence (O96028 whole entry): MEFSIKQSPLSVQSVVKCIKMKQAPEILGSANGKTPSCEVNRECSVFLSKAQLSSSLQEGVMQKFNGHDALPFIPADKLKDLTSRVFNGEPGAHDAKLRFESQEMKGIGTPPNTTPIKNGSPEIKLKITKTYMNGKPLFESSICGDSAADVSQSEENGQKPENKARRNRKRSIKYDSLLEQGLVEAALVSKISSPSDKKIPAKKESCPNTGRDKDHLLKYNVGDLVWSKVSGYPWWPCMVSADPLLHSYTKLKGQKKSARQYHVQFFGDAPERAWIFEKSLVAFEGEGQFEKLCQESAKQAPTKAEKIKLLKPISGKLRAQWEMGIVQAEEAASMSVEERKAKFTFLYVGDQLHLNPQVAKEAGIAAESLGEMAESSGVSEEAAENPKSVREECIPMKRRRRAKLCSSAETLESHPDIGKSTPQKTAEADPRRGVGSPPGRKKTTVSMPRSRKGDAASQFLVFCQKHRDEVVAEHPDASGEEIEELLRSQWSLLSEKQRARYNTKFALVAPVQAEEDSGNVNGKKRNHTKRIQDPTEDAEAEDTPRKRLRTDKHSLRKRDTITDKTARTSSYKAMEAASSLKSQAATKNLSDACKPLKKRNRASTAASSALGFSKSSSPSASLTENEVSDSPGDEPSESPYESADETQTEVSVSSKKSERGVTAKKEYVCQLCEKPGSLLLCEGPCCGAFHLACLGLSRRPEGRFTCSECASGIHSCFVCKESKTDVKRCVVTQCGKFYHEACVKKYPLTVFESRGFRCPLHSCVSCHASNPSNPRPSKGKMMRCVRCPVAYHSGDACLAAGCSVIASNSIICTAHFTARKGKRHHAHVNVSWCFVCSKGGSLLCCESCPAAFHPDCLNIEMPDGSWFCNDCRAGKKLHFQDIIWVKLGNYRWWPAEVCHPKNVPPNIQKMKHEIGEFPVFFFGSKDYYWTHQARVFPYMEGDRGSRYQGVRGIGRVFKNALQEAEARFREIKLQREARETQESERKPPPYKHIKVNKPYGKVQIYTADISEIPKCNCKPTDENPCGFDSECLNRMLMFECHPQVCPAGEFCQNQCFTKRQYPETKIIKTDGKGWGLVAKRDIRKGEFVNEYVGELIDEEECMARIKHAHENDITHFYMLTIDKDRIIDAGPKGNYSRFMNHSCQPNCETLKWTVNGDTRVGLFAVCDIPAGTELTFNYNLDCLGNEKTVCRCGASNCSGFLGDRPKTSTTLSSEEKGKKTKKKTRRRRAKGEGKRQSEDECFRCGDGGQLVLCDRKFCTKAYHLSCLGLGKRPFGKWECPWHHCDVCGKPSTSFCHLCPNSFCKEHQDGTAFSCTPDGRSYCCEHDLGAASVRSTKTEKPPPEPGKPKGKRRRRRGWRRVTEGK

Protein RecA = biological target: T4, Protein RecA (Mycobacterium tuberculosis, UniProt P9WHJ3); experiment: Fluorescence Cell-Free Homogeneous Dose Retest to Identify Inhibitors of RecA-Intein Splicing Activity. [Related pubchem assays (depositor defined):AID2097, AID2223, AID489010, AID492950]; format: functional
T4 sequence (P9WHJ3 whole entry): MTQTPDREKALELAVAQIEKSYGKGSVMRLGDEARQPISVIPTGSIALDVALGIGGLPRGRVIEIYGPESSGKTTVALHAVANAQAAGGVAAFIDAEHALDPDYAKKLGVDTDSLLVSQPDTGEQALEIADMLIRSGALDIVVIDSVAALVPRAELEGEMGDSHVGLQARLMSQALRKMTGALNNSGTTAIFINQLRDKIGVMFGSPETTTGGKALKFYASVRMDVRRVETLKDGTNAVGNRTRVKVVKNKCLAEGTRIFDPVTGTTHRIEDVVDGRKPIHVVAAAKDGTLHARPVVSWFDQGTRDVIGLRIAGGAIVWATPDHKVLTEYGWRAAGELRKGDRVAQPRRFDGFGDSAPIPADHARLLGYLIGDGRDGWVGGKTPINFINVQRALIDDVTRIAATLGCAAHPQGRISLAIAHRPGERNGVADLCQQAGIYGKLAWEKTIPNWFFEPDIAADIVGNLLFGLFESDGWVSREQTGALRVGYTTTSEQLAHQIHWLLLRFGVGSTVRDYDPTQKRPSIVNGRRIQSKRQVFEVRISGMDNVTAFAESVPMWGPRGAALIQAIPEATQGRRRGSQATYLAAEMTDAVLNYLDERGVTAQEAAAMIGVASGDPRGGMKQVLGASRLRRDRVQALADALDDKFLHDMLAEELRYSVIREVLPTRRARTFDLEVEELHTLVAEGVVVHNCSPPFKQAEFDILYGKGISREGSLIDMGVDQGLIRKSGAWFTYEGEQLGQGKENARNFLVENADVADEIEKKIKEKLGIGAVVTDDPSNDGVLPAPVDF

[15] = biological target: T5, Apoptotic protease-activating factor 1 (Homo sapiens, UniProt O14727); format: functional
T5 sequence (O14727 whole entry): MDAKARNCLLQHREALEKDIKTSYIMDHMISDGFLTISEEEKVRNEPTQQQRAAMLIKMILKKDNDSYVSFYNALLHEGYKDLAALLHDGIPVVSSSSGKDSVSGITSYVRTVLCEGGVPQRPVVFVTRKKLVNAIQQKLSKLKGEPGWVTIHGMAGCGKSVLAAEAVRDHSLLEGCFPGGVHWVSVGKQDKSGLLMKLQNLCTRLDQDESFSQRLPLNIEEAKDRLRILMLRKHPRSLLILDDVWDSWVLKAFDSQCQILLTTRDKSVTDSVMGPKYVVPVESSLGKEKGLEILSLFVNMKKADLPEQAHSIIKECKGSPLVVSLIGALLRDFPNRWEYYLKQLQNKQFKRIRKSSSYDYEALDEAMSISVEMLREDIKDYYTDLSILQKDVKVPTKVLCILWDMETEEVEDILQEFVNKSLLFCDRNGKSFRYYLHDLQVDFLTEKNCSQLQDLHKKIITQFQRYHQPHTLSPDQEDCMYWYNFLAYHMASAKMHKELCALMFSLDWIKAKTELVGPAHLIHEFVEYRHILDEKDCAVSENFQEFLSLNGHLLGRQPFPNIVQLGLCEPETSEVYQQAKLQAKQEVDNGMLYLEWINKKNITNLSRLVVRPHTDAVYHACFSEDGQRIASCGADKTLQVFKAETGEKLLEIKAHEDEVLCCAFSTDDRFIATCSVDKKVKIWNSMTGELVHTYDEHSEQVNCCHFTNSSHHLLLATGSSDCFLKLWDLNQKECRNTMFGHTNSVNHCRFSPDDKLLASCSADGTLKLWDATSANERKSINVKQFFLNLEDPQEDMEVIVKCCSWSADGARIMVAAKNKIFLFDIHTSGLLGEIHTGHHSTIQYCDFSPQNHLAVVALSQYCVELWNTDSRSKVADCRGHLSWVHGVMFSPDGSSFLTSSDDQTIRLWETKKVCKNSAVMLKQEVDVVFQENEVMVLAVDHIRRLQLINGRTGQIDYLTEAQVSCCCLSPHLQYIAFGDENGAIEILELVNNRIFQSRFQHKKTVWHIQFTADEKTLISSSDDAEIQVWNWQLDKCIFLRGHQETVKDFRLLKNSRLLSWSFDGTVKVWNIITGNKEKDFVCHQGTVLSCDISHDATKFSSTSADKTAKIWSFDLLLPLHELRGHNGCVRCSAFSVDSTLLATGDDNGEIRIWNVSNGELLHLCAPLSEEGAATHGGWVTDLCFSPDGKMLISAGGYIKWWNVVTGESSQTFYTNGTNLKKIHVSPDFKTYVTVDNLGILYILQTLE

[16] = biological target: Disintegrin and metalloproteinase domain-containing protein 17 (Homo sapiens, UniProt P78536); experiment: exosite inhibitors of ADAM17, dose response, biochemical (AID 743260)
Disintegrin and metalloproteinase domain-containing protein 17, sequence (P78536 whole entry, the tested form may be a part): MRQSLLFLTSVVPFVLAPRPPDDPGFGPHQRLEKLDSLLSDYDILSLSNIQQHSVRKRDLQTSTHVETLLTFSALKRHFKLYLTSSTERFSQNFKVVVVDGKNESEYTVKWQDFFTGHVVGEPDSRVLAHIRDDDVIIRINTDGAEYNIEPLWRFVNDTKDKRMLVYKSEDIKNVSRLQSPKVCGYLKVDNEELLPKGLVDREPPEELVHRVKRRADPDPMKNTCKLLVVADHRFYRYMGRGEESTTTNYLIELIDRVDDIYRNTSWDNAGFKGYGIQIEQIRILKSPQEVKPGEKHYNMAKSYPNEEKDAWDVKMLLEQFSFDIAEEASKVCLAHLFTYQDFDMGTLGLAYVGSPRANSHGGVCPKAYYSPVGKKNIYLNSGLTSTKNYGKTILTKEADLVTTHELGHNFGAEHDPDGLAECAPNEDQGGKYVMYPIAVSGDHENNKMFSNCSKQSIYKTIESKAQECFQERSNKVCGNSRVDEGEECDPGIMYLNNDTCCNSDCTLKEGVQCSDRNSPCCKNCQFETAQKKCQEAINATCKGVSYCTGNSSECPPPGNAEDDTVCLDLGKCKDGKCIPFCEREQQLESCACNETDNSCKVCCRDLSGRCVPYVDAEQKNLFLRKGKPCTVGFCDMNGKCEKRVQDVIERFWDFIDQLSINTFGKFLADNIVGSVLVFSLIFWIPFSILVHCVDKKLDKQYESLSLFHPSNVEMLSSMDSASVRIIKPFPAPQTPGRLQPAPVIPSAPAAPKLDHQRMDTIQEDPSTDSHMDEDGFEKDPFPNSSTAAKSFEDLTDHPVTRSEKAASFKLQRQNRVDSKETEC

CCN(CC)P(=O)(Nc1cccc(C(F)(F)F)c1)c1ccc(N(C)C)cc1NC(=O)c1ccco1 (stereo not drawn)
IC50 [1]: 184 nM (active) | IC50 [2]: 2.29 µM (active) | IC50 (Orexin receptor type 2 [3]): > 50 µM (inactive) | IC50 (CHO-K1): > 66.2 µM (inactive) | EC50 [4]: 2.29 µM (active) | EC50 [5]: 998 nM (active) | EC50 [6]: 1.3 µM (active) | EC50 [7]: > 30 µM (not active) | IC50 [8]: > 49.8 µM (inactive) | IC50 (Orexin receptor type 2 [9]): 5 µM (active)

Cc1ccc(-n2c(S)nnc2C2CC2c2ccc(Cl)cc2)cc1 (stereo not drawn)
IC50 [10]: > 69.5 µM (inactive)

Cc1ccc(Cc2c(-c3ccco3)nc3c(C)cc(Br)cn23)cc1
IC50 (cells [11]): 78.6 µM (inactive) | IC50 (Major prion protein): 9.95 µM (active)

COc1ccc(C(=O)CSc2nnc(Cn3cnc4ccccc43)o2)cc1
IC50 (Galanin receptor type 3): 891 nM (active) | EC50 (cells [12]): > 29.9 µM (inactive)

Cc1cc(NC(=O)C(C)Sc2nc(-c3cccs3)nc3ccccc23)no1 (stereo not drawn)
IC50 (cells [11]): > 138 µM (inactive) | IC50 (Major prion protein): 1.7 µM (active)

CC(C)(C)c1ccc(S(=O)(=O)/N=C2\C=C(NS(=O)(=O)c3ccccc3)C(=O)c3ccccc32)cc1
AC50 [13]: 4.68 µM (active) | IC50 (Genome polyprotein): 25.5 µM (active) | AC50 [14]: 3.73 µM (active) | EC50 (Protein RecA): 4.85 µM (active) | IC50 [15]: 15 µM (active)

Cc1ccc(-n2c(C3CC3c3ccc(Cl)cc3)n[nH]c2=S)cc1 (stereo not drawn)
IC50 [16]: > 69.5 µM (inactive)
